# Test results reported in ChEMBL document CHEMBL5050844 (2019).
# How the values were obtained:
# [1] = Induction of anti-CD3/CD28 antibodies-stimulated human T cell activation at 4 uM assessed fold increase in IL-2 secretion measured by ELISA assay; assay type: functional, T cell line
# [2] = Induction of anti-CD3 antibodies-stimulated human T cell activation at 1 uM assessed fold increase in IL-2 secretion measured by ELISA assay; assay type: functional, T cell line; note: reference of the scale not given here
# [3] = Induction of anti-CD3/CD28 antibodies-stimulated human T cell activation at 1 uM assessed fold increase in IL-2 secretion measured by ELISA assay; assay type: functional, T cell line
# [4] = Induction of anti-CD3 antibodies-stimulated human T cell activation at 8 uM assessed fold increase in IL-2 secretion measured by ELISA assay; assay type: functional, T cell line; note: reference of the scale not given here
# [5] = Induction of anti-CD3/CD28 antibodies-stimulated human T cell activation at 4 uM assessed fold increase in CD25 expression measured by ELISA assay; assay type: functional, T cell line
# [6] = Induction of anti-CD3 antibodies-stimulated human T cell activation at 8 uM assessed fold increase in CD25 expression measured by ELISA assay; assay type: functional, T cell line; note: reference of the scale not given here
# [7] = Induction of anti-CD3 antibodies-stimulated human T cell activation at 1 uM assessed fold increase in CD25 expression measured by ELISA assay; assay type: functional, T cell line; note: reference of the scale not given here
# [8] = Induction of anti-CD3/CD28 antibodies-stimulated human T cell activation at 1 uM assessed fold increase in CD25 expression measured by ELISA assay; assay type: functional, T cell line
# [9] = target: T1, E3 ubiquitin-protein ligase CBL-B (Homo sapiens, UniProt Q13191); assay: Binding affinity towards N-terminal biotinylated Avi-tagged human CBL-B (36 to 427 residues) measured by surface plasmon resonance assay
# T1 sequence (Q13191 whole entry, the tested form may be a part): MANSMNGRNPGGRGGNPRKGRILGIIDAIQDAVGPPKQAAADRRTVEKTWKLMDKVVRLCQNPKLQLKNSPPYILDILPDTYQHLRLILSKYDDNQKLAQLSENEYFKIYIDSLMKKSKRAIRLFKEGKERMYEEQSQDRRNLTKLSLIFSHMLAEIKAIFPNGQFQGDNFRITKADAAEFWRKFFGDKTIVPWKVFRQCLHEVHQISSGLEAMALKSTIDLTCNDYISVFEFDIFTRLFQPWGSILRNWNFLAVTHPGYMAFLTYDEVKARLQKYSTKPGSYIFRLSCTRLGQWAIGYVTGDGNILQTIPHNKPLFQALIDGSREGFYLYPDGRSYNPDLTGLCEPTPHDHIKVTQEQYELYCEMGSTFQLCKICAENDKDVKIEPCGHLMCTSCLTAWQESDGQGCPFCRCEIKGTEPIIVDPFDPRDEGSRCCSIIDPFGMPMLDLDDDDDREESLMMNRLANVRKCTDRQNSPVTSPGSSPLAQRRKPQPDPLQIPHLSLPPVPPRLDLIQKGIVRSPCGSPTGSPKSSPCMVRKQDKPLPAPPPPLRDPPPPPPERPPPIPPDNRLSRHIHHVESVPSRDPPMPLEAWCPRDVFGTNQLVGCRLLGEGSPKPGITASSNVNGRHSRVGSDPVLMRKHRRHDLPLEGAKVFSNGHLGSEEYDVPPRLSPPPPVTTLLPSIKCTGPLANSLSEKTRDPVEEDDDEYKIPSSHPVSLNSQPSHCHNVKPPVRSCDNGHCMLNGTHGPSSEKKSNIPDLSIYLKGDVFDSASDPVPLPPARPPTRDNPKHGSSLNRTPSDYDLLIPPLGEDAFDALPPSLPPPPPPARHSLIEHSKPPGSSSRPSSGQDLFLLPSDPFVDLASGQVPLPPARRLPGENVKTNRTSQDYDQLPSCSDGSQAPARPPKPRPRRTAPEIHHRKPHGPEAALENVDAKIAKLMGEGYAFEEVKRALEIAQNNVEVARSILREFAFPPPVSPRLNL
# [10] = target: T1, E3 ubiquitin-protein ligase CBL-B; assay: Inhibition of N-terminal Avi-tagged human CBL-B (36 to 427 residues) incubated with 60 nM Src kinase for 1.5 hrs followed by incubation with fluorescently labeled UbcH5B-Ub for 1 hr and measured by TR-FRET assay; assay type: single protein
# [11] = Induction of anti-CD3/CD28 antibodies-stimulated human T cell activation at 0.3 uM assessed fold increase in CD25 expression measured by ELISA assay; assay type: functional, T cell line
# [12] = Induction of anti-CD3/CD28 antibodies-stimulated human T cell activation at 0.3 uM assessed fold increase in IL-2 secretion measured by ELISA assay; assay type: functional, T cell line
SMILES,fold change (FC) [1],fold change (FC) [2],fold change (FC) [3],fold change (FC) [4],fold change (FC) [5],fold change (FC) [6],fold change (FC) [7],fold change (FC) [8],Kd [9] [µM],IC50 [10] [µM],fold change (FC) [11],fold change (FC) [12]
CC(O)c1cc2c(c(C(F)(F)F)c1)CN(c1cccc([C@H](C)Cc3nncn3C)c1)C2=O (stereo partly drawn),>=7.5,0.151,5,>=0.201,1.31,>=1.001,0.801,1.31,< 0.1,< 0.1,1.01,2.51
CC1C=NN=C1C[C@@H](C)c1cccc(N2Cc3c(cc(C(=O)N4C[C@@H](O)C[C@H]4C)cc3C(F)(F)F)C2=O)c1 (stereo partly drawn),>=7.5,0.151,2.51,>=0.201,1.31,>=1.001,>=1.001,1.01,< 0.1,< 0.1,1.01,1.01
C[C@H](Cc1nncn1C)c1cccc(NC(=O)c2cc(C3CC3)nc(C3CC3)n2)c1,>=7.5,>=0.201,5,>=0.201,1.51,>=1.001,>=1.001,1.51,< 0.1,< 0.1,1.01,2.51
CC(c1cc2c(c(C(F)(F)F)c1)CN(c1cccc([C@H](C)Cc3nncn3C)c1)C2=O)N1CC[C@H](O)C1 (stereo partly drawn),>=7.5,0.151,>=7.5,>=0.201,1.51,>=1.001,>=1.001,1.31,< 0.1,< 0.1,1.31,2.51
C[C@H](Cc1nncn1C)c1cccc(N2Cc3c(cc(N(C)[C@H]4CCNC4)cc3C(F)(F)F)C2=O)c1,>=7.5,0.151,2.51,>=0.201,1.51,>=1.001,0.801,1.31,< 0.1,< 0.1,1.31,2.51
C[C@H](Cc1nncn1C)c1cccc(N2Cc3c(cc(CN4C[C@@H](F)[C@@H](O)C4)cc3C(F)(F)F)C2=O)c1,>=7.5,0.151,5,>=0.201,1.31,>=1.001,>=1.001,1.31,< 0.1,< 0.1,1.01,2.51
Cc1conc1C[C@@H](C)c1cccc(N2Cc3c(cc(C(=O)N4CC[C@H](O)C4)cc3C(F)(F)F)C2=O)c1,>=7.5,0.101,5,>=0.201,1.01,>=1.001,>=1.001,1.01,< 0.1,< 0.1,1.01,2.51
Cc1n[nH]c(C)c1-c1cc2c(c(C(F)(F)F)c1)CN(c1cccc([C@H](C)Cc3nncn3C)c1)C2=O,>=7.5,>=0.201,>=7.5,>=0.201,>=1.76,>=1.001,>=1.001,1.51,< 0.1,< 0.1,1.31,2.51
Cn1cnnc1C(F)(F)[C@](C)(F)c1cccc(N2Cc3c(cc(CN4CC[C@H](S(C)(=O)=O)C4)cc3C(F)(F)F)C2=O)c1,>=7.5,0.101,2.51,>=0.201,1.01,>=1.001,0.801,1.01,< 0.1,< 0.1,1.01,2.51
C[C@H](Cc1nncn1C)c1cccc(N2Cc3c(cc(C(=O)N4C[C@@H](O)C[C@H]4C)cc3C(F)(F)F)C2=O)c1.O=C(O)C(F)(F)F,>=7.5,>=0.201,5,>=0.201,>=1.76,>=1.001,0.801,1.51,< 0.1,< 0.1,1.31,2.51
C[C@H](Cc1nncn1C)c1cccc(NC(=O)c2ccc(CO)c(C3CC3)n2)c1,>=7.5,>=0.201,>=7.5,>=0.201,1.51,>=1.001,>=1.001,1.51,< 0.1,< 0.1,1.31,>=7.5
C[C@H](Cc1nncn1C)c1cccc(N2Cc3c(cc([C@@H](C)N4CC[C@H](F)C4)cc3C(F)(F)F)C2=O)c1,>=7.5,0.151,>=7.5,>=0.201,1.31,>=1.001,>=1.001,1.01,< 0.1,< 0.1,1.01,5
C[C@H](Cc1nncn1C)c1cccc(N2Cc3c(cc(CO)cc3C(F)(F)F)C2=O)c1,>=7.5,0.151,5,>=0.201,1.31,>=1.001,>=1.001,1.01,< 0.1,< 0.1,1.01,2.51
C[C@H](Cc1nncn1C)c1cccc(N2Cc3c(cc(-n4cccn4)cc3C(F)(F)F)C2=O)c1,>=7.5,>=0.201,>=7.5,>=0.201,1.51,>=1.001,>=1.001,1.51,< 0.1,< 0.1,1.31,2.51
